Experimental data from patent US4837304A, “Inhibitor of ribonucleotide reductase” (Merck & Co., Inc., priority 1987, dated 1989).
Where two headings read alike, the source gives them in different places. Non-standard residues stand in square brackets, D forms with d. Residues, ends and D or L forms follow the SMILES beside them. No end group written: not given here.

Tests used:
[1] = biological target: T1, Herpes Simplex Virus Ribonucleotide Reductase (HSV RR) (Human herpesvirus 2, UniProt P89462); test: Assay of inhibition of HSV RR (reduction of tritiated cytidine-diphosphate to deoxyribo-cytidinediphosphate); assay type: biochemical, HSV2 Strain 186
T1 construct: HSV RR was purified by Baby Hamster Kidney cells that were cultured with HSV2 Strain 186; made in house; host or cells: Baby Hamster Kidney cells infected with HSV2 Strain 186; crude enzyme per Huszar et al., then hydroxyapatite chromatography
T1 sequence (P89462 whole entry): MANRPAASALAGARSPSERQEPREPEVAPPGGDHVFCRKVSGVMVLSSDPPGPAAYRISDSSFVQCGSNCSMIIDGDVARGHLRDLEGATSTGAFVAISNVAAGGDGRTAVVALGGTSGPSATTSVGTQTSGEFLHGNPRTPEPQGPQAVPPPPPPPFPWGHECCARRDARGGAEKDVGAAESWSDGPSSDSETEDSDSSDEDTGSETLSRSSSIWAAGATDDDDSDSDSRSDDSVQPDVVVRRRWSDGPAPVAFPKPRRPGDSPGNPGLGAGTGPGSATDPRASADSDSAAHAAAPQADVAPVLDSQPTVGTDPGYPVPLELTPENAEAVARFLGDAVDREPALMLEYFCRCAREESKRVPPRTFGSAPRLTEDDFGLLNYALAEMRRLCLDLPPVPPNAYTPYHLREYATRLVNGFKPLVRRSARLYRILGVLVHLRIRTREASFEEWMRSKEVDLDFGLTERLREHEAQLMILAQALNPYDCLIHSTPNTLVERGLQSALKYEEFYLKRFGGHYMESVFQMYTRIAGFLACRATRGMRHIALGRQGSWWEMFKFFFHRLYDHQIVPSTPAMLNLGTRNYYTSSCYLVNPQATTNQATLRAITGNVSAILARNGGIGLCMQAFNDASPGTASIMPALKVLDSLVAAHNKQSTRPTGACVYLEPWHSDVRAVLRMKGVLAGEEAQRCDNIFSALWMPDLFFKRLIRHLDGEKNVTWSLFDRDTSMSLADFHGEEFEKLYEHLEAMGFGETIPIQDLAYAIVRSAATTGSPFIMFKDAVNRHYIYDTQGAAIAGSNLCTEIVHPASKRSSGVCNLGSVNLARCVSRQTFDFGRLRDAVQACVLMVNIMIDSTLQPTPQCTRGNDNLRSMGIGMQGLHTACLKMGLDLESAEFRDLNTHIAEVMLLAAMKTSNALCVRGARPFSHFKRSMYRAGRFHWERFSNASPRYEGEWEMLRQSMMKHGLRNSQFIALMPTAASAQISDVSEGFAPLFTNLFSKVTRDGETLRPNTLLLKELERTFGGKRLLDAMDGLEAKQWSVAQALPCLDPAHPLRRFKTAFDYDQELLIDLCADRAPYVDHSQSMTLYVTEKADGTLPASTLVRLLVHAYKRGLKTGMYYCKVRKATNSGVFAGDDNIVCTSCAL
Description: After infection, cells were harvested and lysed.
HSV RR activity was determined as the ability of the enzyme to catalyze the reduction of tritiated cytidine-diphosphate to deoxyribo-cytidinediphosphate in 30 minutes at 37° C. in the presence of dithiothreitol and MgCl2. Activity of oligopeptide inhibitors was determined by adding them to the reaction mix at the beginning of the incubation. Enzyme was not preincubated with inhibitor.
These were analyzed for amino acid composition and in some cases sequenced. Dry peptides were resuspended in 100 mM HEPES (pH 8.0) at about 2mM, relyophilized, and stored in aliquots at -80° C. Immediately prior to use they were rehydrated with distilled H2 O and centrifuged to remove any undissolved peptide.

[2] = biological target: ribonucleotide reductase enzyme of herpes simplex virus (Human herpesvirus 1, UniProt P08543); settings: Nature 321:439-441 and 441-443 (1986); cited from earlier work
[3] = biological target: T2, ribonucleotide reductase enzyme of herpes simplex virus (Human herpesvirus 1, UniProt P08543); settings: Nature 321:439-441 and 441-443 (1986); cited from earlier work; remark: listed apart in the source
T2 sequence (P08543 whole entry, looked up): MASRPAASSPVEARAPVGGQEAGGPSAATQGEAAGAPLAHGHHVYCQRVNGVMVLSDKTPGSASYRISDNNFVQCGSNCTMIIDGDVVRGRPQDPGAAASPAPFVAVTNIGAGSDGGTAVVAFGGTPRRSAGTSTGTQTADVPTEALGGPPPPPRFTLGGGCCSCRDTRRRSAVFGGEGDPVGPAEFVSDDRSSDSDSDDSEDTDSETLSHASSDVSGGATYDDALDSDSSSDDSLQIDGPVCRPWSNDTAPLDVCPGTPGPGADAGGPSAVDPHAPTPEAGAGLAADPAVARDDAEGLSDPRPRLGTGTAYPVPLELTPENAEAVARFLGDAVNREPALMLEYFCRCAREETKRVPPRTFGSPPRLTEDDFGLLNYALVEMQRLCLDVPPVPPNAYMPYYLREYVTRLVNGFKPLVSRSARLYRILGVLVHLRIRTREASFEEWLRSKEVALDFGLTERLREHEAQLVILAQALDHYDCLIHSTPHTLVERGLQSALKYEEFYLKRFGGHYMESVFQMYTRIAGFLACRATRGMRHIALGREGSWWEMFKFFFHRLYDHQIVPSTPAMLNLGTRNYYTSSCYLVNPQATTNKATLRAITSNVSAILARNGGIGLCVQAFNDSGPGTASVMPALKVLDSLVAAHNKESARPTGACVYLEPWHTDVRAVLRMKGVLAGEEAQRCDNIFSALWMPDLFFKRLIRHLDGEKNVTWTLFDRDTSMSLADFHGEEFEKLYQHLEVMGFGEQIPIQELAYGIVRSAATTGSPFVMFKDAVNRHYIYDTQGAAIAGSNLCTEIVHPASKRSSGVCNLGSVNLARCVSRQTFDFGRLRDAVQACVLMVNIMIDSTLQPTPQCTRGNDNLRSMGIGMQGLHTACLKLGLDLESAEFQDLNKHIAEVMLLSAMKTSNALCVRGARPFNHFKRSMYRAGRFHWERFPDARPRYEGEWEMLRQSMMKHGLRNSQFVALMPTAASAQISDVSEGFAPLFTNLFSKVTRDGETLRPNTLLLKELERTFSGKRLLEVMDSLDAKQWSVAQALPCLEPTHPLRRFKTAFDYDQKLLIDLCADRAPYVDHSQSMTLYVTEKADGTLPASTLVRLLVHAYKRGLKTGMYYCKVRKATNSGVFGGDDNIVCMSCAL

[4] = 30 minutes at 37° C., dithiothreitol and MgCl2, enzyme not preincubated with inhibitor, read-out: IC50 (μM concentration of peptide producing 50% inhibition of enzyme activity)

CC(C)C[C@H](NC(=O)[C@@H](CC(=O)O)NC(=O)[C@H](CC(N)=O)NC(=O)[C@@H](NC(=O)[C@@H](NC(=O)[C@H](C)N)C(C)C)C(C)C)C(=O)O [A V V N dD L] (H-AVVN[dD]L-OH)
IC50 [1, 4]: 520 µM

CC(C)C[C@H](NC(=O)[C@H](CC(=O)O)NC(=O)[C@@H](CC(N)=O)NC(=O)[C@@H](NC(=O)[C@@H](NC(=O)[C@H](C)N)C(C)C)C(C)C)C(=O)O [A V V dN D L] (H-AVV[dN]DL-OH)
IC50 [1, 4]: 460 µM

CC(C)C[C@H](NC(=O)[C@H](CC(=O)O)NC(=O)[C@H](CC(N)=O)NC(=O)[C@H](NC(=O)[C@@H](NC(=O)[C@H](C)N)C(C)C)C(C)C)C(=O)O [A V dV N D L] (H-AV[dV]NDL-OH)
IC50 [1, 4]: 600 µM

CC(C)C[C@H](NC(=O)[C@H](CC(=O)O)NC(=O)[C@@H](CC(N)=O)NC(=O)[C@@H](NC(=O)[C@@H](NC(=O)[C@H](C)NC(=O)CNC(=O)[C@H](C)NC(=O)[C@@H](N)Cc1ccc(O)cc1)C(C)C)C(C)C)C(=O)O [Y A G A V V dN D L]
IC50 [1, 4]: > 620 µM

CC(C)C[C@H](NC(=O)[C@H](CC(=O)O)NC(=O)[C@H](CC(N)=O)NC(=O)[C@@H](NC(=O)[C@@H](NC(=O)[C@@H](C)NC(=O)CNC(=O)[C@H](C)NC(=O)[C@@H](N)Cc1ccc(O)cc1)C(C)C)C(C)C)C(=O)O [Y A G dA V V N D L]
IC50 [1, 4]: 72 µM

CC(C)C[C@H](NC(=O)[C@H](CC(=O)O)NC(=O)[C@H](CC(N)=O)NC(=O)[C@@H](NC(=O)[C@@H](NC(=O)[C@H](C)NC(=O)[C@@H](C)NC(=O)[C@H](C)NC(=O)[C@@H](N)Cc1ccc(O)cc1)C(C)C)C(C)C)C(=O)O [Y A dA A V V N D L] (H-YA[dA]AVVNDL-OH)
IC50 [1, 4]: 88 µM

CC(C)C[C@H](NC(=O)[C@H](CC(=O)O)NC(=O)[C@H](CC(N)=O)NC(=O)[C@@H](NC(=O)[C@@H](NC(=O)[C@H](C)NC(=O)CNC(=O)[C@@H](C)NC(=O)[C@@H](N)Cc1ccc(O)cc1)C(C)C)C(C)C)C(=O)O [Y dA G A V V N D L]
IC50 [1]: 210 µM

CC(C)C[C@H](NC(=O)[C@H](CC(=O)O)NC(=O)[C@H](CC(N)=O)NC(=O)[C@@H](NC(=O)[C@@H](NC(=O)[C@@H](C)N)C(C)C)C(C)C)C(=O)O [dA V V N D L] (H-[dA]VVNDL-OH)
IC50 [1, 4]: 90 µM

CC(C)C[C@H](NC(=O)[C@H](CC(=O)O)NC(=O)[C@H](CC(N)=O)NC(=O)[C@@H](NC(=O)[C@@H](NC(=O)[C@H](C)NC(=O)CNC(=O)[C@H](C)NC(=O)[C@H](N)Cc1ccc(O)cc1)C(C)C)C(C)C)C(=O)O [dY A G A V V N D L]
IC50 [1, 4]: 40 µM

CC(C)C[C@H](NC(=O)[C@H](CC(=O)O)NC(=O)[C@H](CC(N)=O)NC(=O)[C@@H](NC(=O)[C@@H](NC(=O)[C@H](N)Cc1ccc(O)cc1)C(C)C)C(C)C)C(=O)O [dY V V N D L] (H-[dY]VVNDL-OH)
IC50 [1, 4]: 30 µM

Tyr Ala Gly Ala Val Val Asn Asp Leu
inhibition in vitro of the activity of the enzyme [2]: inhibited

YGAVVNDL [8-desalanine homolog of the nonapeptide, disclosed by Dutia et al]
inhibition in vitro of the activity of the enzyme [3]: inhibited
